Consider six molecules from patent US20230391845A1, “GLP-1, GIP AND GLUCAGON RECEPTOR TRIPLE AGONISTS” (priority 2020, published 2023).

One data set deals with T1, human GLP-1 receptor (Homo sapiens, UniProt P43220).
T1 construct: expressed in transfected cells; host or cells: BHK cells (parent line BHKTS13) containing CRE luciferase
The data set can be described thus: In vitro functional potency (CRE luciferase; whole cells), human GLP-1R. In kind it is cell-based. The following applies: BHK CRE luc2P hGLP-1R whole cells; Table 2; read-out: hGLP-1R CRE Luc EC50.

The nature of data set [1]: Pharmacokinetic study in minipigs, i.v. administration. The following applies: minipig, in vivo, iv. Details: species or system Göttingen minipigs. As for the experimental part:
The purpose of this example is to determine the half-life in vivo of the triple agonists as described herein after i.v. administration to minipigs, i.e. the prolongation of their time in the body and thereby their time of action. This is done in a pharmacokinetic (PK) study, where the terminal half-life of the triple agonist in question is determined. By terminal half-life is generally meant the period of time it takes to halve a certain plasma concentration, measured after the initial distribution phase.
Female Göttingen minipigs were obtained from Ellegaard Göttingen Minipigs (Dalmose, Denmark) approximately 7-14 months of age and weighing from approximately 16-35 kg were used in the studies. The minipigs were housed individually and fed restrictedly once daily with SDS minipig diet (Special Diets Services, Essex, UK).
After at 3 weeks of acclimatisation two permanent central venous catheters were implanted in vena cava caudalis in each animal. The animals were allowed 1 week recovery after the surgery, and were then used for repeated pharmacokinetic studies with a suitable wash-out period between successive dosings.
The animals were fasted for approximately 18 hours before dosing and from 0 to 4 hours after dosing, but had adlibitum access to water during the whole period.
Intravenous injections (the volume corresponding to usually 1.5-2 nmol/kg, for example 0.1 mL/kg) of the triple agonists were given through one catheter, and blood was sampled at predefined time points for up to 14 days post dosing (preferably through the other catheter). Blood samples (for example 0.8 mL) were collected in 8 mM EDTA buffer and then centrifuged at 4° C. and 1942 g for 10 minutes.
Plasma was pipetted into Micronic tubes on dry ice and kept at −20° C. until analysed for plasma concentration of the triple agonists using ELISA, or a similar antibody-based assay, or LCMS. Individual plasma concentration-time profiles were analysed by a non-compartmental model in Phoenix WinNonLin ver. 6.4. (Pharsight Inc., Mountain View, CA, USA), and the resulting terminal half-lives (harmonic mean) determined.

In data set [2] the target is human glucagon-like peptide 1 receptor (human, UniProt P43220 24-463). Description: cell-based or functional assay.
Data set [3] deals with T2, human glucose-dependent insulinotropic polypeptide receptor (human, UniProt P48546 22-466).
T2 sequence (looked up): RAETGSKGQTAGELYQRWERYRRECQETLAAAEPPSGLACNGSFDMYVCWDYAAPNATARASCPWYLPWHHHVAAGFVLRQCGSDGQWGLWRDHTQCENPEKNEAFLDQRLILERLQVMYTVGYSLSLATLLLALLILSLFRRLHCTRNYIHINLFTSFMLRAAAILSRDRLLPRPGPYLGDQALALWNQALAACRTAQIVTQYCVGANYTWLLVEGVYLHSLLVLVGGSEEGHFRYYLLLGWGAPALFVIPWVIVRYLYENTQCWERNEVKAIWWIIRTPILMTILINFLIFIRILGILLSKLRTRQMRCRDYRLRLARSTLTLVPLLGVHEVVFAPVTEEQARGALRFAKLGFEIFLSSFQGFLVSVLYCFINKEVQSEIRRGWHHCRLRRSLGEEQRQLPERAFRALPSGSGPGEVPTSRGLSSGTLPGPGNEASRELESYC
Description: cell-based or functional assay.

Another data set addresses human glucagon receptor (human, UniProt P47871 26-477). Description: cell-based or functional assay.

*1 amine or outer side, *2 acyl side, *3 side chain or, on linkers, in order; H or OH if unused. Where a SMILES comes first, the peptide text is derived from it. Where no end group is shown, it is not given here. Side-chain parts run from the residue outwards. [ ]: non-standard residue; d: D form. The star is where a group is joined. X1 = O=C(O)CCCCCCCCCCCCCCCCCCC(=O)NCC1CCC(C(=O)*)CC1; C20 diacid = O=C(O)CCCCCCCCCCCCCCCCCCC(=O)*; γGlu = O=C(O)[C@H](CCC(=O)[*:2])N[*:1]; εLys = N[C@@H](CCCCN[*:1])C(=O)[*:2]; AEEA = NCCOCCOCC(=O)O; Aib = CC(C)(N)C(=O)O

T1 sequence (P43220 24-463): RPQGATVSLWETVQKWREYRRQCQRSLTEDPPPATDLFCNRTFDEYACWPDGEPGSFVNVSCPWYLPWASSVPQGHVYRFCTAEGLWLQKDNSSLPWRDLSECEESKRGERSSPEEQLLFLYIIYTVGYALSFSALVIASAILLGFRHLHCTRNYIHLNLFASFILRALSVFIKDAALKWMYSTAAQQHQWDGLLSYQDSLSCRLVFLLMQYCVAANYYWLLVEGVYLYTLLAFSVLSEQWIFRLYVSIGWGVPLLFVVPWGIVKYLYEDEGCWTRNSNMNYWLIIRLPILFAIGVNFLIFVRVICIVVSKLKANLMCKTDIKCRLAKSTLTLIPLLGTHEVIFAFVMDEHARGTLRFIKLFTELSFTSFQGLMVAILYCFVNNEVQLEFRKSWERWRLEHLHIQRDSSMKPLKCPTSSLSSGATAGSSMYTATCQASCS
Chain of human glucagon receptor (P47871 26-477): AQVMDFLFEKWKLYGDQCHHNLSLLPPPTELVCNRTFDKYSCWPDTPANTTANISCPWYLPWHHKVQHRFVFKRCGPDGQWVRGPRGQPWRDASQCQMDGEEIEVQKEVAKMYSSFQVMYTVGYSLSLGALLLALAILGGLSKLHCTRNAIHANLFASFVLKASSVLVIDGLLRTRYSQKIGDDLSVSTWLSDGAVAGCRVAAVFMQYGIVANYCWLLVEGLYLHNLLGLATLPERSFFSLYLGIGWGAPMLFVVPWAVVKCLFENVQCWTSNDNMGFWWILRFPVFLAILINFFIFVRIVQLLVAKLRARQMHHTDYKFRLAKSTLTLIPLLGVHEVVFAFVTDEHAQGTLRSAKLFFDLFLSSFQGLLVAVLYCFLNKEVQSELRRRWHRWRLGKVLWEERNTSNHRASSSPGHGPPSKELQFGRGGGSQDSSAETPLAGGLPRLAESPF
Description for human GLP-1 receptor: The purpose of this example is to test the functional activity, or potency, of the compounds in vitro at the human and mouse GLP-1, GIP, and Gcg receptors. The in vitro functional potency is the measure of target receptor activation in a whole cell assay.
In vitro functional potency was determined by measuring the response of the target receptor in a reporter gene assay in individual cell lines. The assay was performed in stably transfected BHK cell lines that expresses one of the following G-protein coupled receptors: human GLP-1 receptor, human GIP receptor, human Gcg receptor, mouse GLP-1 receptor, mouse GIP receptor, or mouse Gcg receptor; and where each cell line contains the DNA for the cAMP response element (CRE) coupled to a promoter and the gene for firefly luciferase (CRE luciferase). When the respective receptor is activated, it results in the production of cAMP, which in turn results in expression of the luciferase protein. When assay incubation is completed, luciferase substrate (luciferin) is added resulting in the enzymatic conversion of luciferin to oxyluciferin and producing bioluminescence. The luminescence is measured as the readout for the assay.
The cells lines used in these assays were BHK cells with BHKTS13 as a parent cell line. The cell lines were derived from a clone containing the CRE luciferase element and were established by further transfection with the respective receptor to obtain the relevant cell line.
The cells were cultured at 37° C. with 5% CO2 in Cell Culture Medium. They were aliquoted and stored in liquid nitrogen. The cells were kept in continuous culture and were seeded out the day before each assay.
GLP-1R and GcgR Cell Culture Medium consisted of DMEM medium with 10% FBS, 500 µg/mL G418, and 300 µg/mL hygromycin. GIPR Cell Culture Medium consisted of DMEM medium with 10% FBS, 400 µg/mL G418, and 300 µg/mL hygromycin. Assay Buffer consisted of DMEM w/o phenol red, 10 mM Hepes, 1× Glutamax, 1% ovalbumin, and 0.1% Pluronic F-68.
• 1) Cells were plated at 5000 cells/well and incubated overnight in the assay plate. • 2) Cells were washed once in DPBS. • 3) Stocks of the test compounds and reference compounds in concentrations ranging from 100-300 pM were diluted 1:150 in Assay Buffer.
The data from the microtiter plate reader was first regressed in an Excel in order to calculate the x-axis, log scale concentrations based on the individual test compound's stock concentration and the dilutions of the assay. […] The software performs a non-linear regression (log(agonist) vs response). A minimum of two replicates was measured for each sample. The reported values are averages of the replicates.

With `CC[C@H](C)[C@H](NC(=O)[C@H](CO)NC(=O)[C@H](Cc1ccc(O)cc1)NC(=O)[C@H](CC(=O)O)NC(=O)[C@H](CO)NC(=O)[C@@H](NC(=O)[C@H](Cc1ccccc1)NC(=O)[C@@H](NC(=O)CNC(=O)[C@H](CCC(N)=O)NC(=O)C(C)(C)NC(=O)[C@@H](N)Cc1ccc(O)cc1)[C@@H](C)O)[C@@H](C)O)C(=O)N[C@@H](Cc1ccc(O)cc1)C(=O)N[C@@H](CC(C)C)C(=O)N[C@@H](CCC(=O)O)C(=O)N[C@@H](CCCCNC(=O)[C@@H](N)CCCCNC(=O)[C@@H](N)CCCCNC(=O)CC[C@H](NC(=O)CCCCCCCCCCCCCCCCCCC(=O)O)C(=O)O)C(=O)N[C@@H](CCC(N)=O)C(=O)N[C@@H](C)C(=O)N[C@@H](C)C(=O)NC(C)(C)C(=O)N[C@@H](CCC(=O)O)C(=O)N[C@@H](Cc1ccccc1)C(=O)N[C@H](C(=O)N[C@@H](CCC(N)=O)C(=O)N[C@@H](Cc1c[nH]c2ccccc12)C(=O)N[C@@H](CC(C)C)C(=O)N[C@@H](CC(C)C)C(=O)N[C@@H](CCC(=O)O)C(=O)NCC(=O)NCC(=O)N1CCC[C@H]1C(=O)N[C@@H](CO)C(=O)N[C@@H](CO)C(=O)NCC(=O)N[C@@H](C)C(=O)N1CCC[C@H]1C(=O)N1CCC[C@H]1C(=O)N1CCC[C@H]1C(=O)N[C@@H](CO)C(N)=O)C(C)C` [Compound No. 17] (H-Y[Aib]QGTFTSDYSIYLEK([εLys-εLys-γGlu-C20 diacid])QAA[Aib]EFVQWLLEGGPSSGAPPPS-NH2), on human GLP-1 receptor, the EC50 (as a rule, the concentration at which the effect is half-maximal) amounted to 2.8 pM.
With `CC[C@H](C)[C@H](NC(=O)[C@H](CO)NC(=O)[C@H](Cc1ccc(O)cc1)NC(=O)[C@H](CC(=O)O)NC(=O)[C@H](CO)NC(=O)[C@@H](NC(=O)[C@H](Cc1ccccc1)NC(=O)[C@@H](NC(=O)CNC(=O)[C@H](CCC(N)=O)NC(=O)C(C)(C)NC(=O)[C@@H](N)Cc1ccc(O)cc1)[C@@H](C)O)[C@@H](C)O)C(=O)N[C@@H](Cc1ccc(O)cc1)C(=O)N[C@@H](CC(C)C)C(=O)N[C@@H](CC(=O)O)C(=O)N[C@@H](CCCCNC(=O)COCCOCCNC(=O)COCCOCCNC(=O)CC[C@H](NC(=O)C1CCC(CNC(=O)CCCCCCCCCCCCCCCCCCC(=O)O)CC1)C(=O)O)C(=O)N[C@@H](CCC(N)=O)C(=O)N[C@@H](C)C(=O)N[C@@H](C)C(=O)NC(C)(C)C(=O)N[C@@H](CCC(=O)O)C(=O)N[C@@H](Cc1ccccc1)C(=O)N[C@H](C(=O)N[C@@H](CC(N)=O)C(=O)N[C@@H](Cc1c[nH]c2ccccc12)C(=O)N[C@@H](CC(C)C)C(=O)N[C@@H](CC(C)C)C(=O)N[C@@H](C)C(=O)NCC(=O)NCC(=O)N1CCC[C@H]1C(=O)N[C@@H](CO)C(=O)N[C@@H](CO)C(=O)NCC(=O)N[C@@H](C)C(=O)N1CCC[C@H]1C(=O)N1CCC[C@H]1C(=O)N1CCC[C@H]1C(=O)N[C@@H](CO)C(N)=O)C(C)C` (some centres unmarked) [Compound No. 6] (H-Y[Aib]QGTFTSDYSIYLDK([AEEA-AEEA-γGlu-X1])QAA[Aib]EFVNWLLAGGPSSGAPPPS-NH2), in data set [1], the half-life (as a rule, the time needed for the level to fall by half in the phase considered) is 83 h.
Regarding `CC[C@H](C)[C@H](NC(=O)[C@H](CO)NC(=O)[C@H](Cc1ccc(O)cc1)NC(=O)[C@H](CC(=O)O)NC(=O)[C@H](CO)NC(=O)[C@@H](NC(=O)[C@H](Cc1ccccc1)NC(=O)[C@@H](NC(=O)CNC(=O)[C@H](Cc1c[nH]cn1)NC(=O)C(C)(C)NC(=O)[C@@H](N)Cc1c[nH]cn1)[C@@H](C)O)[C@@H](C)O)C(=O)N[C@@H](CC(C)C)C(=O)N[C@@H](CC(C)C)C(=O)N[C@@H](CCC(=O)O)C(=O)N[C@@H](CCCCNC(=O)[C@@H](N)CCCCNC(=O)[C@@H](N)CCCCNC(=O)CC[C@H](NC(=O)CCCCCCCCCCCCCCCCCCC(=O)O)C(=O)O)C(=O)N[C@@H](CCC(N)=O)C(=O)N[C@@H](C)C(=O)N[C@@H](C)C(=O)N[C@@H](CCCNC(=N)N)C(=O)N[C@@H](CCC(=O)O)C(=O)N[C@@H](Cc1ccccc1)C(=O)N[C@H](C(=O)N[C@@H](CCC(N)=O)C(=O)N[C@@H](Cc1c[nH]c2ccccc12)C(=O)N[C@@H](CC(C)C)C(=O)N[C@@H](CC(C)C)C(=O)N[C@@H](CCC(=O)O)C(=O)NCC(=O)NCC(=O)N1CCC[C@H]1C(=O)N[C@@H](CO)C(=O)N[C@@H](CO)C(=O)NCC(=O)N[C@@H](C)C(=O)N1CCC[C@H]1C(=O)N1CCC[C@H]1C(=O)N1CCC[C@H]1C(=O)N[C@@H](CO)C(=O)O)C(C)C` [Compound No. 55] (H-H[Aib]HGTFTSDYSILLEK([εLys-εLys-γGlu-C20 diacid])QAAREFVQWLLEGGPSSGAPPPS-OH; N-terminus assumed), the EC50 on human GLP-1 receptor stood at 2 pM.
In the case of `CC[C@H](C)[C@H](NC(=O)[C@H](CO)NC(=O)[C@H](Cc1ccc(O)cc1)NC(=O)[C@H](CC(=O)O)NC(=O)[C@H](CO)NC(=O)[C@@H](NC(=O)[C@H](Cc1ccccc1)NC(=O)[C@@H](NC(=O)CNC(=O)[C@H](CCC(N)=O)NC(=O)C(C)(C)NC(=O)[C@@H](N)Cc1ccc(O)cc1)[C@@H](C)O)[C@@H](C)O)C(=O)N[C@@H](Cc1ccc(O)cc1)C(=O)N[C@@H](CC(C)C)C(=O)N[C@@H](CCC(=O)O)C(=O)N[C@@H](CCCCN)C(=O)N[C@@H](CCC(N)=O)C(=O)N[C@@H](C)C(=O)N[C@@H](C)C(=O)NC(C)(C)C(=O)N[C@@H](CCCCNC(=O)COCCOCCNC(=O)COCCOCCNC(=O)CC[C@H](NC(=O)C1CCC(CNC(=O)CCCCCCCCCCCCCCCCCCC(=O)O)CC1)C(=O)O)C(=O)N[C@@H](Cc1ccccc1)C(=O)N[C@H](C(=O)N[C@@H](CCC(N)=O)C(=O)N[C@@H](Cc1c[nH]c2ccccc12)C(=O)N[C@@H](CC(C)C)C(=O)N[C@@H](CC(C)C)C(=O)N[C@@H](CCC(=O)O)C(=O)NCC(=O)NCC(=O)N1CCC[C@H]1C(=O)N[C@@H](CO)C(=O)N[C@@H](CO)C(=O)NCC(=O)N[C@@H](C)C(=O)N1CCC[C@H]1C(=O)N1CCC[C@H]1C(=O)N1CCC[C@H]1C(=O)N[C@@H](CO)C(N)=O)C(C)C` (some centres unmarked) [Compound No. 11] (H-Y[Aib]QGTFTSDYSIYLEKQAA[Aib]K([AEEA-AEEA-γGlu-X1])FVQWLLEGGPSSGAPPPS-NH2; N-terminus assumed), at human GLP-1 receptor, the EC50 worked out at 4.3 pM.
With `CC[C@H](C)[C@H](NC(=O)[C@H](CO)NC(=O)[C@H](Cc1ccc(O)cc1)NC(=O)[C@H](CC(=O)O)NC(=O)[C@H](CO)NC(=O)[C@@H](NC(=O)[C@H](Cc1ccccc1)NC(=O)[C@@H](NC(=O)CNC(=O)[C@H](Cc1c[nH]cn1)NC(=O)C(C)(C)NC(=O)[C@@H](N)Cc1c[nH]cn1)[C@@H](C)O)[C@@H](C)O)C(=O)N[C@@H](Cc1ccc(O)cc1)C(=O)N[C@@H](CC(C)C)C(=O)N[C@@H](CCC(=O)O)C(=O)N[C@@H](CCCCNC(=O)[C@@H](N)CCCCNC(=O)[C@@H](N)CCCCNC(=O)CC[C@H](NC(=O)CCCCCCCCCCCCCCCCCCC(=O)O)C(=O)O)C(=O)N[C@@H](CCCNC(=N)N)C(=O)N[C@@H](C)C(=O)N[C@@H](C)C(=O)NC(C)(C)C(=O)N[C@@H](CCC(=O)O)C(=O)N[C@@H](Cc1ccccc1)C(=O)N[C@H](C(=O)N[C@@H](CCC(N)=O)C(=O)N[C@@H](Cc1c[nH]c2ccccc12)C(=O)N[C@@H](CC(C)C)C(=O)N[C@@H](CC(C)C)C(=O)N[C@@H](CCC(=O)O)C(=O)NCC(=O)NCC(=O)N1CCC[C@H]1C(=O)N[C@@H](CO)C(=O)N[C@@H](CO)C(=O)NCC(=O)N[C@@H](C)C(=O)N1CCC[C@H]1C(=O)N1CCC[C@H]1C(=O)N1CCC[C@H]1C(=O)N[C@@H](CO)C(N)=O)C(C)C` [Compound No. 37] (H-H[Aib]HGTFTSDYSIYLEK([εLys-εLys-γGlu-C20 diacid])RAA[Aib]EFVQWLLEGGPSSGAPPPS-NH2; N-terminus assumed), the EC50 on human GLP-1 receptor worked out at 1.8 pM.

B1: Compound No. 18 (peptide)
peptide: Y[Aib]HGTFTSDYSIYLEKQAA[Aib]EFVQWLLEGGPSSGAPPPS-NH2
modifications: not fully specified (residue 16); printed as Y-Aib-HGTFTSDYSIYLE-K[(2S)-2-amino-6-[[(2S)-2-amino-6-[[(4S)-4-carboxy-4-(19-carboxynonadecanoylamino)butanoyl]amino]hexanoyl]amino]hexanoyl]-QAA-Aib-EFVQWLLEGGPSSGAPPPS-NH2
On to B1, for which, in data set [2], the “hGLP-1R CRE Luc EC50 (pM)” value was 106 pM. Also, in data set [3], the “hGIPR CRE Luc EC50 (pM)” value is 7.1 pM. For the same molecule, the “hGcgR CRE Luc EC50 (pM)” value with human glucagon receptor is 72.1 pM.
